Patent publication US8778621B2, “Phosphodiesterase 4D7 as marker for malignant, hormone-sensitive prostate cancer” (Koninklijke Philips N.V., priority 2009, dated 2014)
Like-named read-outs stand apart in the source and are kept apart here.

What was measured:
[1] = in vivo; cited from earlier work
[2] = target: T1, platelet PDE-V (Homo sapiens, UniProt O76074); settings: cited from earlier work
T1 construct: from tissue; host or cells: platelets

[3] = target: T2, lung PDE2; settings: cited from earlier work
T2 construct: from tissue; host or cells: lung
T2 sequence (O00408 whole entry): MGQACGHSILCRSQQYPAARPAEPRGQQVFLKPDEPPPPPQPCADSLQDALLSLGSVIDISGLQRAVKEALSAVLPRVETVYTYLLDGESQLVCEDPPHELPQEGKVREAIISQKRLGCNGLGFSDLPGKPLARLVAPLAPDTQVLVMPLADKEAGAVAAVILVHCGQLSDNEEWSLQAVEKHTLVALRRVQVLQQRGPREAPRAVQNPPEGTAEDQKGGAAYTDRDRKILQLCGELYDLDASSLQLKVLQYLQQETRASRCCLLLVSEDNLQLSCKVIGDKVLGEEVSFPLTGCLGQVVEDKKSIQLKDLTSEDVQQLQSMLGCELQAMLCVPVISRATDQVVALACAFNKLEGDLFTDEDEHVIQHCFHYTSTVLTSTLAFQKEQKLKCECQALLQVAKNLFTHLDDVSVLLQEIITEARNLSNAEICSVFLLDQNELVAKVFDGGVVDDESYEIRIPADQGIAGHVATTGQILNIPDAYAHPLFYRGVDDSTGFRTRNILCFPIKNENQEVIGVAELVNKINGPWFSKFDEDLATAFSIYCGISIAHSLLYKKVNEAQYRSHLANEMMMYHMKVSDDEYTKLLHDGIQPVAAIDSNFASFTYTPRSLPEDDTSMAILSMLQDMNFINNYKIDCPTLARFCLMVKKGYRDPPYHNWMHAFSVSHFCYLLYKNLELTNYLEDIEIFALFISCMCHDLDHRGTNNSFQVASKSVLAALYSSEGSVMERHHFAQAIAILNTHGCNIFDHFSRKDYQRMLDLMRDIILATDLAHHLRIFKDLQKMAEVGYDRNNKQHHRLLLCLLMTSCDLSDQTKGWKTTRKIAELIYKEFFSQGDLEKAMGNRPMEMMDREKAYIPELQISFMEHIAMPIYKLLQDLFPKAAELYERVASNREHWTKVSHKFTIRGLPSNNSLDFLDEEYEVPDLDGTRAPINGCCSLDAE

[4] = system: lung PDE1; settings: cited from earlier work
[5] = system: isolated human peripheral blood monocytes, eosinophils and T cells; settings: cited from earlier work
[6] = target: cAMP phosphodiesterase (PDE4); settings: cited from earlier work
[7] = system: heart PDE3; settings: cited from earlier work
[8] = system: human lung PDE4; settings: cited from earlier work
[9] = target: [3H]-rolipram binding to rat brain; settings: read-out: IC50 for inhibition of [3H]-rolipram binding to rat brain; cited from earlier work
[10] = target: PDEIIA (Homo sapiens, UniProt O00408); settings: cited from earlier work
Chain of PDEIIA (O00408 whole entry): as above

[11] = target: PDEXA (Homo sapiens, UniProt Q9Y233); settings: cited from earlier work
Chain of PDEXA (Q9Y233 whole entry): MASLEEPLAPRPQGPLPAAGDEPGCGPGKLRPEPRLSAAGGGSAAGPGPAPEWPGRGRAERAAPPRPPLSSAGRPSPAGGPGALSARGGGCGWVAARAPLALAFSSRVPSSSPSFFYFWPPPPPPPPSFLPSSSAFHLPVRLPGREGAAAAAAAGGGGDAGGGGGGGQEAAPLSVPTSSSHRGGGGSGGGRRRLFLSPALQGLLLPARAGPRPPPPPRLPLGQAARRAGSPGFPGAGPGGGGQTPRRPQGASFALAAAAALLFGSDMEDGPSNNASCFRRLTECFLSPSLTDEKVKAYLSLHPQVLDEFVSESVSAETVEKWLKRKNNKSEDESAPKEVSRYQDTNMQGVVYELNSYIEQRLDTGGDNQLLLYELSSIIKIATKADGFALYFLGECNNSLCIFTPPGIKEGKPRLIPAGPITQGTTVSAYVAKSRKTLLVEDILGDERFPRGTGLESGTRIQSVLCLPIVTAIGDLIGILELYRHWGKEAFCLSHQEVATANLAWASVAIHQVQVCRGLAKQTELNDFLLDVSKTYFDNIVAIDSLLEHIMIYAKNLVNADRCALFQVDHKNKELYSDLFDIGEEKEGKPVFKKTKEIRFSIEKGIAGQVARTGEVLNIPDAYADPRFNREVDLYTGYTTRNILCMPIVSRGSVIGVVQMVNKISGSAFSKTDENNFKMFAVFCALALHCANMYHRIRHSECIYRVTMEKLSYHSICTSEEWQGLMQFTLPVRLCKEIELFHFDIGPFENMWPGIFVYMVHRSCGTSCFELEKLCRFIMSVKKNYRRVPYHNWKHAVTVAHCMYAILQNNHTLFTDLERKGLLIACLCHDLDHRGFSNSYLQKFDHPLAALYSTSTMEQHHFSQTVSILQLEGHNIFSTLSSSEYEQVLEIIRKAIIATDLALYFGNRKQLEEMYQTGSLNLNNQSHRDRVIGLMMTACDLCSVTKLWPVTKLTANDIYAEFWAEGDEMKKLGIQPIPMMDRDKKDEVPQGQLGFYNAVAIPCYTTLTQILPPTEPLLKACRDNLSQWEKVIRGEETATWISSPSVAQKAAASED

[12] = target: PDEXIA (Homo sapiens, UniProt Q9HCR9); settings: cited from earlier work
Chain of PDEXIA (Q9HCR9 whole entry): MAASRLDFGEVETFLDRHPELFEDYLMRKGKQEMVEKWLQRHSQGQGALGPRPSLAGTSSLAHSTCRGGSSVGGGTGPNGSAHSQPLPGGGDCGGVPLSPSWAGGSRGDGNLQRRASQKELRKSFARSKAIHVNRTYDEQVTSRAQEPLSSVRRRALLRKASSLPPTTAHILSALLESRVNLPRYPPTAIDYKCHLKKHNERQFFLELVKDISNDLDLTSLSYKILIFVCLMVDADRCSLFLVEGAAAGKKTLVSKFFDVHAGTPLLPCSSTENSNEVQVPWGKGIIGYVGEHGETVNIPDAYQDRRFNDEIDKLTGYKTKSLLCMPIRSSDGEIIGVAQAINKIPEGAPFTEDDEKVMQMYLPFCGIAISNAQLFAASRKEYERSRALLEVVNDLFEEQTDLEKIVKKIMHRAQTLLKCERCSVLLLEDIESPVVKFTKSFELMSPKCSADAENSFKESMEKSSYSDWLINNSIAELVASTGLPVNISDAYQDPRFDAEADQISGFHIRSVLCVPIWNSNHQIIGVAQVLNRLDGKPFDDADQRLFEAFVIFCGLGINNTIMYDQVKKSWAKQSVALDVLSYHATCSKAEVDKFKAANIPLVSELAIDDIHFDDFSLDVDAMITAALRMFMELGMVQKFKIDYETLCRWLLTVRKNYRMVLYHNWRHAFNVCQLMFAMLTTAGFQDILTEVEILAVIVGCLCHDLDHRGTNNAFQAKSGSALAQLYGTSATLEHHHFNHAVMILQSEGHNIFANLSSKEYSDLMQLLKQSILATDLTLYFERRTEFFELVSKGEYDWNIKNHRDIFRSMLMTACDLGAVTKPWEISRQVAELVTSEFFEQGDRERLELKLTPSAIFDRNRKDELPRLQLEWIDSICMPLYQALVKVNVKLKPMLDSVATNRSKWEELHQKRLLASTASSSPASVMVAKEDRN

[13] = target: PDEIIIB (Homo sapiens, UniProt Q13370); settings: cited from earlier work
[14] = target: PDEVA (Homo sapiens, UniProt O76074); settings: cited from earlier work
[15] = target: PDEIB (Homo sapiens, UniProt Q01064); settings: cited from earlier work
Chain of PDEIB (Q01064 whole entry): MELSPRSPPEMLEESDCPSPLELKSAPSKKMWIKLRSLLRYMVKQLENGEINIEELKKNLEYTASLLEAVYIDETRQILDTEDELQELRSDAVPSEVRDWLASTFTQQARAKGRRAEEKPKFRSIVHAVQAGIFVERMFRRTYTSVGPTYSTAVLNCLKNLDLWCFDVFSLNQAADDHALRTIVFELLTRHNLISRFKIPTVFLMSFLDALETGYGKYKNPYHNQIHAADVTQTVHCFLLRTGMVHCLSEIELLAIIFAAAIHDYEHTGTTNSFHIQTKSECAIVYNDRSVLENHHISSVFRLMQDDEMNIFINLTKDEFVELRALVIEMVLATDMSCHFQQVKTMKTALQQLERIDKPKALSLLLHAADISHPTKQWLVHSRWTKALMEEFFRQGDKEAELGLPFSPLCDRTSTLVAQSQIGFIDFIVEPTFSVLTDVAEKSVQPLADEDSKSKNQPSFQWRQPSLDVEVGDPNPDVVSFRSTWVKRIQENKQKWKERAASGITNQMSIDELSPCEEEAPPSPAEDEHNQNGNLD

[16] = target: PDEVIIB (Homo sapiens, UniProt Q9NP56); settings: cited from earlier work
[17] = target: PDEVIIIA (Homo sapiens, UniProt O60658); settings: cited from earlier work
Chain of PDEVIIIA (O60658 whole entry): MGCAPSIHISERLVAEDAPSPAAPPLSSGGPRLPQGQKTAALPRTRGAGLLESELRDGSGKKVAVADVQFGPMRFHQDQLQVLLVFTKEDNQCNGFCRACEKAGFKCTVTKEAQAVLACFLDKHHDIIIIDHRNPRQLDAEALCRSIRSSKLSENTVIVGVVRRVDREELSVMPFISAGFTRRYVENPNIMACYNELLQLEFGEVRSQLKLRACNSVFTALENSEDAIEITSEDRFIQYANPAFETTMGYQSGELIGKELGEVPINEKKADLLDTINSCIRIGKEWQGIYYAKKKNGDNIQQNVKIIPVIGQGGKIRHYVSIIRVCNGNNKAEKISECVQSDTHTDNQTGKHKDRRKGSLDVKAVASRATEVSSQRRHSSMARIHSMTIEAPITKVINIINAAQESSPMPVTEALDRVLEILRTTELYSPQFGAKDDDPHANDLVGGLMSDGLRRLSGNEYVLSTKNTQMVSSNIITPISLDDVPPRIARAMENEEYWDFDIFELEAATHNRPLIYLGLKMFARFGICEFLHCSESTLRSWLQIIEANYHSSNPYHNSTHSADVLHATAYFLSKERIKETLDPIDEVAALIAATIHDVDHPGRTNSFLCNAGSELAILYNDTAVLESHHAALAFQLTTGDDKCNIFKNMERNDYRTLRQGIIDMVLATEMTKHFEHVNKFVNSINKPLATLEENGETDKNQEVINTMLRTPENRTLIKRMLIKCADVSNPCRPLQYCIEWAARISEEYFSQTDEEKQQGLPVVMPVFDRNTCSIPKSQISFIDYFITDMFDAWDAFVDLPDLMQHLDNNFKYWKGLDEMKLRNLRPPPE

[18] = target: PDEIXA (Homo sapiens, UniProt O76083); settings: cited from earlier work
Chain of PDEIXA (O76083 whole entry): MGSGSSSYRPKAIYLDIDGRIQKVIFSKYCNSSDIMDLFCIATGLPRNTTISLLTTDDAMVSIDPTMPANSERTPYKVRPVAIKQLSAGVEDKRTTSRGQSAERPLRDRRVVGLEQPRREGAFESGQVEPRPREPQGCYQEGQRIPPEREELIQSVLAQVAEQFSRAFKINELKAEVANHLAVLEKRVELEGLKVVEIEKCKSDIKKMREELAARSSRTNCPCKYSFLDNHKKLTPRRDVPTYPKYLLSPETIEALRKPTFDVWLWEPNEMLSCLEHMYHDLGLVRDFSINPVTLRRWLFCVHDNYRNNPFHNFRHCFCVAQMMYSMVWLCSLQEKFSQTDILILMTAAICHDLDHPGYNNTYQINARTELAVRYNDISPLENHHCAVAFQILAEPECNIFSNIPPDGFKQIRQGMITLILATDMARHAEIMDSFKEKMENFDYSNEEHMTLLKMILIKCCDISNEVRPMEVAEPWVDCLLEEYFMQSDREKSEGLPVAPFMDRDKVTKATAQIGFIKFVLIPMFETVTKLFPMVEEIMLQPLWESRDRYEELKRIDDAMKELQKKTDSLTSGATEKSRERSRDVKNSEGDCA

[19] = system: LNCaP prostate cancer cells; assay: Xcelligence assay, real time electrical impedance measurement of cell growth; format: cell-based; settings: Homo sapiens
Description: The growth data is expressed as a percentage of “untreated” slope value obtained during real time electrical impedance measurements. Measurements were conducted 12 hours after the initial plating down phase of the assay, i.e. 12 hours-60 hours—so as to examine proliferative potential and not morphological change. The cells were assayed without the presence of androgens.
For the Xcelligence assay LNCaP cells were grown at 37° C., 5% CO2, from a seeding value of 5000 cells. The final plating volume was 200 μl. E-Plate 96 well plates were obtained from Roche (Cat No 05232368001). The growth data were obtained during real time electrical impedance measurements. Measurements were conducted 12 hours after the initial plating down phase of the assay, i.e. 12 hours-60 hours—so as to examine proliferative potential and not morphological change. The cells were assayed without the presence of androgens. The significance of differential growth rates were calculated using T-Test of Triplicate Values only. […] The level of average inhibition of cell proliferation is around 50%, which would lead to an IC50 of the compound of ˜10 μM. Compared to an in vitro IC50 for 50% inhibition of PDE4 in vitro of ˜2 μm, an in vivo IC50 of 10 μM let us conclude that the proliferation inhibition effect is largely due to its PDE4 activity.

[20] = system: LNCaP prostate cancer cells; assay: MTT growth assay, A590 Abs end-point; format: cell-based; settings: Homo sapiens
Description: The growth data is expressed as a percentage of as a percentage of the “untreated” A590 Abs reading after 48 hours. The cells were assayed without the presence of androgens.
For the MTT growth assay LNCaP cells were grown at 37° C., 5% CO2, from a seeding value of 5000 cells. The final plating volume was 200 μl. The proliferation assay was obtained from Promega (Cat no G3582). The growth data were obtained during A590 Abs measurements. Measurements were conducted 48 hours after the initial plating. The cells were assayed without the presence of androgens. The significance of final A590 readings was calculated using T-Test of Triplicate Values only. […] The level of average inhibition of cell proliferation is around 50%, which would lead to an IC50 of the compound of ˜10 μM. […]

[21] = in vivo; cited from earlier work; remark: listed apart in the source
[22] = PDE4 inhibitors, target not given, read-out: IC 50 (Table of Inhibitors)

Structure (SMILES): COc1ccc(C2CNC(=O)NC2)cc1O[C@H]1C[C@@H]2CC[C@H]1C2 [CP80633]
- anti-inflammatory and bronchodilatory effects [1]: anti-inflammatory and bronchodilatory effects in vivo
- IC50 [2]: > 100 µM
- IC50 [3]: > 100 µM
- IC50 [4]: > 100 µM
- hydrolysis of cAMP in blood cells [5]: inhibits hydrolysis of cAMP
- IC50 [6, 22]: 1.9 µM
- IC50 [7]: > 100 µM
- IC50 [8]: 1.9 µM
- PDE4 isozyme selectivity [8]: no significant PDE4 isozyme selectivity

Structure (SMILES): CCCn1c(=O)c(C)cn2nc(N)nc12 [ICI63197]
- IC50 [6, 22]: 0.035 µM
- IC50 [9]: 0.035 µM

Structure (SMILES): CCOC(=O)c1c(C)nn(-c2cccc([N+](=O)[O-])c2)c1C [Phosphodiesterase 4 Inhibitor]
- IC50 [10]: > 30 µM
- IC50 [11]: 6.9 µM
- IC50 [12]: > 30 µM
- IC50 [13]: > 30 µM
- IC50 [14]: > 30 µM
- IC50 [15]: > 30 µM
- IC50 [16]: > 30 µM
- IC50 [17]: > 30 µM
- IC50 [6, 22]: 0.033 µM
- IC50 [18]: > 30 µM

Structure (SMILES): COc1ccc(C2CNC(=O)C2)cc1OC1CCCC1 (stereo not drawn) [Rolipram]
- inhibition at 10 µM ([19]; 10 uM, 12-60 hours, without androgens, p<0.01, read-out: level of average inhibition of cell proliferation): ~50%
- IC50 ([19]; real-time growth, concluded from 50% inhibition at 10 uM, read-out: IC50 of cell proliferation inhibition): ~10 µM
- IC50 [6, 22]: 1 µM
- IC50 ([6]; in vitro, read-out: in vitro IC50 for 50% inhibition of PDE4): ~2 µM
- IC50 ([6]; read-out: IC50, PDE4): 2 µM
- inhibition at 10 µM ([20]; 10 μM, 48 hours, without androgens, p<0.01, read-out: level of average inhibition of cell proliferation): ~50%
- IC50 ([20]; end-point growth, concluded from 50% inhibition at 10 μM, read-out: IC50 of cell proliferation inhibition): ~10 µM

Structure (SMILES): CCc1ccc2c(-c3cccc(Cl)c3)nc(=O)n(CC)c2n1 [YM976]
- emetogenic activity [21]: low emetogenic activity
- IC50 ([6]; read-out: IC50, PDE4): 0.0022 µM
